Source: paper PMC9518246, “Design and synthesis of new indole drug candidates to treat Alzheimer’s disease and targeting neuro-inflammation using a multi-target-directed ligand (MTDL) strategy” (Journal of Enzyme Inhibition and Medicinal Chemistry, 2022)
“And” between values parts separate entries of the source, which are not always exact repeats. Identical values can stand only once.

How the values were obtained:
[1] = target: AChE (Homo sapiens, UniProt P22303); assay: biochemical; settings: for IC50: modified Ellman, read-out: AChE inhibitory activity IC50
Description: (§1) The effects of twenty synthetic compounds were evaluated for AChE and BuChE inhibition using the modified method of Ellman et al.[33] […] AChE and BuChE are found in the brains of mammals. Genetically, structurally, and kinetically, the two kinds vary. In the human brain, BuChE is found in glial cells and neurons as well as in plaques and tangles in AD patients. […] BuChE may replace AChE by hydrolysing brain acetylcholine in some conditions, such as in mice nullizygote for AChE or in AD patients in advanced stages of the disease[34]^,[35].

[2] = target: BuChE (Homo sapiens, UniProt P06276); assay: biochemical; settings: modified Ellman; read-out: BuChE inhibitory activity IC50
Description: as §1

[3] = target: T1, Aβ1–42 (Homo sapiens, UniProt P05067); assay: Inhibition of Aβ1-42 self-induced aggregation (BioVision ligand screening kit); format: biochemical; settings: µM
T1 construct: purchased BioVision K570-100
Source text: Screening Aβ42 ligands that could prevent aggregation is critical for developing potential therapeutic treatments. In BioVision’s Beta-Amyloid 1–42 (Aβ42) Ligand Screening kit, a dye binds to the beta-sheets of an aggregated amyloid peptide resulting in an intense fluorescent product at wave length 450 nm using a BIOLINE ELISA reader. In the presence of an Aβ42 ligand, this reaction is impeded/abolished resulting in a decrease or total loss of fluorescence. This assay is useful in screening Aβ42 ligands for developing potential therapeutic agents against AD[42]. The assessment was performed according to BioVision’s Beta-Amyloid 1–42 (Aβ42) Ligand Screening Kit Catalog No. K570-100.

Chain of BuChE (P06276 29-602): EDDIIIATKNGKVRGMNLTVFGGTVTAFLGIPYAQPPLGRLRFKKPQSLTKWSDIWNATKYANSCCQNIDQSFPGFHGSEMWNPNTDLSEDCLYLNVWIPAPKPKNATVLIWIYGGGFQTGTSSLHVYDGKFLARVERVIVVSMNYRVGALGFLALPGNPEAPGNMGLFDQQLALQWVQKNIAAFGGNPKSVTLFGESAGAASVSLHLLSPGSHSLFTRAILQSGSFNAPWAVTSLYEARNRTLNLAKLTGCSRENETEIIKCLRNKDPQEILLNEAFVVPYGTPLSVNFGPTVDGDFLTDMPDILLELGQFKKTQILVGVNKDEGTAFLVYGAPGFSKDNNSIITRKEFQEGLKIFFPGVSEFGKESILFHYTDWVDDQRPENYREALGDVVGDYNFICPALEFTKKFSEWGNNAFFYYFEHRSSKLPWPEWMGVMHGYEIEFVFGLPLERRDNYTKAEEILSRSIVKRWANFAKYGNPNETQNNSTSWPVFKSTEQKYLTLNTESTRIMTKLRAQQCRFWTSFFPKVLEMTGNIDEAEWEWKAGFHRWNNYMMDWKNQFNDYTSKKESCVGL
Chain of AChE (P22303 32-614): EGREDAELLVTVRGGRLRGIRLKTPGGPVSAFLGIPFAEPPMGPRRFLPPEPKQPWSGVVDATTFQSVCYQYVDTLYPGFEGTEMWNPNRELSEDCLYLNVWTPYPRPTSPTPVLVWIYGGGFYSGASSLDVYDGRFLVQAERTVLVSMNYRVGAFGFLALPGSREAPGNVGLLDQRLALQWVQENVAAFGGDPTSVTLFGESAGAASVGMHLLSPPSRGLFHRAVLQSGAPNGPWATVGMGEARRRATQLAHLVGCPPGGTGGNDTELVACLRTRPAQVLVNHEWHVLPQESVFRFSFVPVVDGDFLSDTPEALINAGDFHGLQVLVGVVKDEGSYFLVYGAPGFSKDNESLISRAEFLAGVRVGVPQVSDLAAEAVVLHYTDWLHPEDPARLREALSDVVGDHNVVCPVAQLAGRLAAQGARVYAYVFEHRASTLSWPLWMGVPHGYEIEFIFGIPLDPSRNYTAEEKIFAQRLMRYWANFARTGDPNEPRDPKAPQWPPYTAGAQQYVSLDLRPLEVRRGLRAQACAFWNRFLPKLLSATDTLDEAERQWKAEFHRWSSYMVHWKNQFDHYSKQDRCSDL
T1 sequence (P05067 672-713 limits assumed): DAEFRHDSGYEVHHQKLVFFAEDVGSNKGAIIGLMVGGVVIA

SMILES	AChE inhibition in words, compared to reference drugs (tacrine and donepezil) [1]	IC50 [2]	IC50 [1] [µM]	IC50 [3] [µM]	other results
CS(=O)(=O)n1cc(/C=C(/C(=O)O)c2ccccc2)c2ccccc21					melting point: 181 to 183 °C
COc1cc(CC(=O)Nc2ccc(C(=O)/C=C/c3cn(S(C)(=O)=O)c4ccccc34)cc2)cc(OC)c1OC					melting point: 176 to 178 °C
CS(=O)(=O)n1cc(/C=N/NC(=O)c2ccccc2)c2ccccc21					melting point: 114 to 116 °C
COc1cc(-c2c(C#N)c(N)n(/N=C/c3cn(S(C)(=O)=O)c4ccccc34)c(=O)c2C#N)cc(OC)c1OC					melting point: 210 to 212 °C
CS(=O)(=O)n1cc(/C=C(/C(=O)O)c2ccc(Cl)cc2)c2ccccc21 [Compound 3b, (E)-2–(4-Chlorophenyl)-3-[1-(methylsulfonyl)-1H-indol-3-yl]acrylic acid]	less activity				
COc1cc(/C(=C\c2cn(S(C)(=O)=O)c3ccccc23)C(=O)O)cc(OC)c1OC [Compound 3c, (E)-3-[1-(Methylsulfonyl)-1H-indol-3-yl]-2–(3,4,5-trimethoxyphenyl)acrylic acid]		0.117 µM	0.0411	6.91	
CS(=O)(=O)n1cc(/C=C(\C(=O)N2CCCCC2)c2ccc(Cl)cc2)c2ccccc21 [Compound 4a, (E)-2–(4-Chlorophenyl)-3-[1-(methylsulfonyl)-1H-indol-3-yl]-1-(pipridin-1-yl)prop-2-en-1-one]		0.0417 to 0.0741 µM and 0.0369 to 0.0804 µM	0.132 to 0.164	22.4	
CS(=O)(=O)n1cc(/C=C(/C(=O)Nc2cccnc2)c2ccc(Cl)cc2)c2ccccc21 [Compound 4b, (E)-2–(4-Chlorophenyl)-3-[1-(methylsulfonyl)-1H-indol-3-yl]-N-(pyridin-3-yl)acrylamide]		0.0417 to 0.0741 µM and 0.0369 to 0.0804 µM	0.132 to 0.164	13.8	
CS(=O)(=O)n1cc(/C=C(\C(=O)N2CCN(c3ncccn3)CC2)c2ccc(Cl)cc2)c2ccccc21 [Compound 4c, (E)-2–(4-Chlorophenyl)-3-[1-(methylsulfonyl)-1H-indol-3-yl]-1-[4-(pyrimidin-2-yl)piprazin-1-yl]prop-2-en-1-one]	less activity				
CS(=O)(=O)n1cc(C=C(C(=O)N2CCC(Cc3ccccc3)CC2)c2ccc(Cl)cc2)c2ccccc21 [Compound 4d, (E)-1–(4-Benzylpipridin-1-yl)-2–(4-chlorophenyl)-3-[1-(methylsulfonyl)-1H-indol-3-yl]prop-2-en-1-one]		0.0417 to 0.0741 µM and 0.0369 to 0.0804 µM	0.132 to 0.164	8.76	
CS(=O)(=O)n1cc(/C=C/C(=O)c2ccc(NC(=O)Cc3ccccc3)cc2)c2ccccc21 [Compound 5a, (E)-N-{4-[3–(1-(methylsulfonyl)-1H-indol-3-yl)acryloyl]phenyl}-2-phenylacetamide]	less activity				
CS(=O)(=O)n1cc(/C=C/C(=O)c2cccc(NC(=O)CN3CCC(Cc4ccccc4)CC3)c2)c2ccccc21 [Compound 6a, (E)-2–(4-Benzylpiperidin-1-yl)-N-{3-[3–(1-(methylsulfonyl)-1H-indol-3-yl)acryloyl]phenyl}acetamide]	less activity				
CS(=O)(=O)n1cc(/C=N/NC(=O)Cc2ccccc2)c2ccccc21 [Compound 7b, (E)-N'-{[1-(Methylsulfonyl)-1H-indol-3-yl]methylene}-2-phenylacetohydrazide]	less activity				
CS(=O)(=O)n1cc(/C=N/NC(=O)Cc2ccc(Cl)cc2)c2ccccc21 [Compound 7c, (E)-2–(4-Chlorophenyl)-N'-{[1-(methylsulfonyl)-1H-indol-3-yl]methylene}acetohydrazide]		0.076 µM	0.0891	14.9	
COc1ccc(-c2c(C#N)c(N)n(/N=C/c3cn(S(C)(=O)=O)c4ccccc34)c(=O)c2C#N)cc1 [Compound 9a, (E)-6-Amino-4-(4-methoxyphenyl)-1-{[(1-(methylsulfonyl)-1H-indol-3-yl)methylene]amino}-2-oxo-1,2-dihydropyridine-3,5-dicarbonitrile]	less activity				
COc1ccc(-c2c(C#N)c(N)n(/N=C/c3cn(S(C)(=O)=O)c4ccccc34)c(=O)c2C#N)cc1OC [Compound 9b, (E)-6-Amino-4–(3,4-dimethoxyphenyl)-1-{[(1-(methylsulfonyl)-1H-indol-3-yl)methylene]amino}-2-oxo-1,2-dihydropyridine-3,5-dicarbonitrile]	less activity				
CCn1c(N)c(C(=O)N/N=C/c2cn(S(C)(=O)=O)c3ccccc23)sc1=S [Compound 10a, (E)-4-Amino-3-ethyl-N'-{[1-(methylsulfonyl)-1H-indol-3-yl]methylene}-2-thioxo-2,3-dihydrothiazole-5-carbohydrazide]	less activity				
CS(=O)(=O)n1cc(/C=N/NC(=O)c2sc(=S)n(-c3ccccc3)c2N)c2ccccc21 [Compound 10b, (E)-4-Amino-N'-{[1-(methylsulfonyl)-1H-indol-3-yl]methylene}-3-phenyl-2-thioxo-2,3-dihydrothiazole-5-carbohydrazide]		0.0474 µM	0.0645	5.16	
